Results reported in patent US20080241816A1, “Method for Stabilizing Oxidizable Color Developing Reagent” (DAIICHI PURE CHEMICALS CO., LTD, priority 2004, published 2008).

Columns and labels:
[1] = Stabilization Test 1 for TPM-PS (storage at 37° C., absorbance at 600 nm); format: physicochemical; conditions: for absorbance at 600 nm, 2-Week storage / absorbance at 600 nm, 3-Week storage / absorbance at 600 nm, Time 0: 37° C.; for absorbance at 600 nm, Time 0: time 0 (start)
Method: TPM-PS was dissolved in each of the aqueous solutions described below so as to attain a concentration of 60 μM, and stored at 37° C. Subsequently, absorbance was measured at 600 nm by means of an automated analyzer (Model 7150; product of Hitachi, Ltd.).

[2] = Stabilization Test 2 for TPM-PS (storage at 25° C. for 10 days, absorbance at 600 nm); format: physicochemical; conditions: for Variation over 10 days (OD): 600 nm
Method: TPM-PS was dissolved in each of the aqueous solutions described below so as to attain a concentration of 100 μM, and absorbance was measured at 600 nm. After each sample was stored at 25° C. for 10 days, absorbance was again measured at 600 nm.

[3] = 60 μM in 5 mM Citric acid (pH 2.8)
[4] = 60 μM in 5 mM Maleic acid (pH 2.5)
[5] = 60 μM in 5 mM Tartaric acid (pH 2.8)

absorbance at 600 nm, 2-Week storage [1, 3]: 0.057
absorbance at 600 nm, 3-Week storage [1, 3]: 0.080
absorbance at 600 nm, Time 0 [1, 3]: 0.022
absorbance at 600 nm, 2-Week storage [1, 4]: 0.050
absorbance at 600 nm, 3-Week storage [1, 4]: 0.072
absorbance at 600 nm, Time 0 [1, 4]: 0.023
absorbance at 600 nm, 2-Week storage [1, 5]: 0.064
absorbance at 600 nm, 3-Week storage [1, 5]: 0.088
absorbance at 600 nm, Time 0 [1, 5]: 0.024
absorbance at 600 nm, 2-Week storage ([1]; 60 μM in 20 mM PB-K (pH 8)): 0.132
absorbance at 600 nm, 3-Week storage ([1]; 60 μM in 20 mM PB-K (pH 8)): 0.215
absorbance at 600 nm, Time 0 ([1]; 60 μM in 20 mM PB-K (pH 8)): 0.023
nonspecific color development / stability in solution ([1]; aqueous solutions of pH 1 to 5, 37° C.): suppressed effectively
Variation over 10 days (OD) ([2]; 100 μM in 100 mM Citrate buffer, pH 3, 25° C.): −0.01 OD
Variation over 10 days (OD) ([2]; 100 μM in 100 mM Citrate buffer, pH 4, 25° C.): 0.08 OD
Variation over 10 days (OD) ([2]; 100 μM in 100 mM Citrate buffer, pH 5, 25° C.): 0.15 OD
Variation over 10 days (OD) ([2]; 100 μM in 100 mM Glycine-HCl, pH 2, 25° C.): 0.00 OD
Variation over 10 days (OD) ([2]; 100 μM in 100 mM Glycine-HCl, pH 3, 25° C.): −0.01 OD
Variation over 10 days (OD) ([2]; 100 μM in 100 mM Potassium phosphate buffer, pH 6, 25° C.): 0.22 OD
Variation over 10 days (OD) ([2]; 100 μM in 100 mM Potassium phosphate buffer, pH 7, 25° C.): 0.16 OD
Variation over 10 days (OD) ([2]; 100 μM in 100 mM Potassium phosphate buffer, pH 8, 25° C.): 0.17 OD
Variation over 10 days (OD) ([2]; 100 μM in Control (purified water), pH Not regulated, 25° C.): 0.22 OD
Variation over 10 days (OD) ([2]; 100 μM in HCl—KCl, pH 1, 25° C.): −0.01 OD
Variation over 10 days (OD) ([2]; 100 μM in HCl—KCl, pH 2, 25° C.): 0.01 OD
absorbance variation / storage stability ([2]; aqueous solution of pH 1 to 5, 25° C., 10 days): stably stored
Structure (SMILES): O=S(=O)(O)CCCN(CCCS(=O)(=O)O)c1ccc(C(c2ccc(N(CCCS(=O)(=O)O)CCCS(=O)(=O)O)cc2)c2ccc(N(CCCS(=O)(=O)O)CCCS(=O)(=O)O)cc2)cc1 [TPM-PS, N,N,N′,N′,N″,N″-hexa-3-sulfopropyl-4,4′,4″-triaminotriphenylmethane]
